Experimental data reported in patent US20250360111A1, “COMPOSITIONS OF AGPAT4 INHIBITORS AND METHODS OF USING THEREOF TO TREAT CANCER” (The University of Hong Kong, priority 2024, published 2025).

Columns and labels:
[1] = biological target: T1, AGPAT4 (Homo sapiens, UniProt Q9NRZ5); assay: Competitive gel-based ABPP in live cells with CL26-alkyne probe; format: cell-based; settings: Huh7 cells stably expressing FLAG-AGPAT4
T1 construct: The open reading frame (ORF) encoding the mRNA of AGPAT4 was cloned into the pDONR-221 donor vector; expressed in transfected cells; host or cells: Huh7
T1 sequence (Q9NRZ5 1-378): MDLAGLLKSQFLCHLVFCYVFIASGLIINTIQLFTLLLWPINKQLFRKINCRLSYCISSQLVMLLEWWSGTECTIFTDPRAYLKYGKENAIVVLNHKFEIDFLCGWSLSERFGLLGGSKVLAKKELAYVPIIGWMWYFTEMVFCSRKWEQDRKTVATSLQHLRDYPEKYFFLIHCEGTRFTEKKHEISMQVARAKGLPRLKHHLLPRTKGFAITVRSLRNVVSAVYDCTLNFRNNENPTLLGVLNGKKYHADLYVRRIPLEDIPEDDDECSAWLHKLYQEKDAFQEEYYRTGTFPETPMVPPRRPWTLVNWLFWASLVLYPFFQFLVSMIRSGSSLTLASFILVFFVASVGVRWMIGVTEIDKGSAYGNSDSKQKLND
Experimental: (§1) An in-gel fluorescence assay was performed to investigate the protein targets of CL26. Huh7 cells overexpressing AGPAT4 or cysteine mutants were pre-treated with CL26 at the indicated concentrations for 2 h, followed by CL26-alkyne (1 μM) treatment for another 2 h. Cells were harvested in RIPA buffer supplemented with protease and phosphatase inhibitors (Thermo Fisher Scientific #A32961). The proteins were precipitated by incubation with 6× volume of pre-chilled acetone at −20° C. overnight. Proteins were pelleted by centrifugation at 5000 g for 10 min and resuspended in PBS. The protein content was measured using the BCA assay and normalized to 2 mg/mL. Cell lysates (50 μL) were labelled with azide-fluor 545 by click reaction (final reaction mixture: azide-fluor 545 (25 μM), copper(II) sulfate (1 mM), TBTA (100 μM), and freshly prepared TCEP (1 mM)) at room temperature with constant agitation. After incubation for 1 h, the reaction was quenched with the sampling buffer and boiled at 90° C. for 5 min. Samples were subjected to SDS-PAGE, in-gel fluorescence was captured using ChemiDoc MP (Bio-Rad), and Coomassie Blue staining was performed. Similarly, immunoblotting was used to investigate the protein targets of CL26. Huh7 cells stably transfected with FLAG-AGPAT4 were pre-treated with either the solvent control or CL26 at the indicated concentrations for 2 h, followed by CL26-alkyne (10 μM) treatment for another 2 h. Cells were harvested, and lysates were prepared as described above unless specified. Anti-FLAG M 2 affinity beads were added in FLAG-tag pull-down experiments. After 4 h of incubation at 4° C., the beads were washed with TBS-T and resuspended in TBS-T. Sampling buffer was added and the samples were boiled for protein elution. The samples were subjected to SDS-PAG E and imaged for fluorescence signals before western blot analysis. In the probe pull-down experiment, 1 mL of lysate was labelled with desthiobiotin (DTB)-azide by a click reaction (final reaction mixture: copper(II) sulfate (1 mM), TBTA (100 μM), DTB-PEG-azide (100 μM), and freshly prepared TCEP (1 mM)). […]

[2] = test system: AGPAT4; assay: as above; format: cell-based, human; settings: Huh7 cells, empty vector vs FLAG-AGPAT4; silver staining of enriched proteins
Experimental: as §1

[3] = test system: MHCC97L and MHCC97H vs. Huh7 and LO2 cells; assay: XTT assay, viability assay and excess over bliss synergy analysis; format: cell-based, human; settings: CL26 combined with sorafenib, 48 h
Experimental: (§2) Cells (1×10^3 cells/well) were seeded in 96-well plates and cultured in complete medium for 24 h. Subsequently, sorafenib and/or CL26 was added to the culture and incubated for 48 h. The XTT tetrazolium reagent (Gold Biotechnology) and phenazine methosulfate (Thermo Fisher Scientific) were premixed and added to each well. The absorbance at 450 nm was measured using a Victor 3 microplate reader (PerkinElimer). Drug interactions were evaluated using the bliss independence model. According to this model, the expected growth inhibition (Eexp) resulting from the combination of drugs A and B was calculated using the following equation: Eexp=Ea+Eb−Ea×Eb, with Ea representing the growth inhibition caused by drug A alone and Eb representing the growth inhibition caused by drug B alone. To assess drug interactions, the difference between the observed growth inhibition (Eobs) and expected growth inhibition (Eexp) was calculated.
(§3) 1×10^4 cells were seeded in a 6-well plate and cultured in complete medium for 24 h. Subsequently, sorafenib and/or CL26 was added to the culture and incubated for 48 h. Dead cells were carefully washed with PBS, and the remaining viable cells were fixed using 4% paraformaldehyde (Sigma-Aldrich) and visualized by staining with 2% crystal violet (Sigma-Aldrich).

[4] = test system: sorafenib-sensitive and sorafenib-resistant HepG2 cells; assay: as above; format: cell-based, human; settings: CL26 combined with sorafenib, 48 h
Experimental: as §2, §3

[5] = Animal toxicity studies; format: in vivo, C57BL/6 mice; settings: 1 mg/kg or 10 mg/kg intraperitoneally
Experimental: C57BL/6 mice were administered CL26 at a low dose (1 mg/kg) or high dose (10 mg/kg) intraperitoneally to evaluate potential tissue damage associated with CL26 exposure. Major organs, including the liver, spleen, pancreas, kidney, heart, and lungs, were weighed prior to fixation in 10% formalin for subsequent paraffin embedding and H& E staining. Additionally, the serum concentrations of alanine aminotransferase (ALT) and aspartate aminotransferase (AST) were measured. The above analysis was performed at the Veterinary Diagnostic Laboratory of the City University of Hong Kong.

[6] = test system: HCC PDX model #1 and sorafenib-resistant HCC PDX model #2
Description: HCC PDX #1 were first expanded in NOD-SCID mice as described previously (21). Sorafenib-resistant HCC PDX #2 was established and expanded as described previously (29). Dissociated PDX tumors (5×10^5 cells in 100% Matrigel) were orthotopically injected into the left lobes of the livers of 6-week-old BA L B/c nude mice (n=6-10 per group). Drug administration was initiated three weeks after inoculation. The mice were then randomized for treatment with DMSO, sorafenib, 30% PET (30% PEG400/15% ethanol/5% Tween 80 in saline), or CL26 (1 mg/kg or 10 mg/kg, delivered intraperitoneally thrice per week). Seven weeks post-inoculation, tumor-bearing mice were sacrificed. The livers were harvested for histological and ex vivo limiting dilution analyses.

[7] = sorafenib orally plus CL26 intraperitoneally

## O=C(CCl)NCc1ccc(-c2nc3ccccc3s2)o1 [CL26, N-[[5-(2-benzothiazolyl)-2-furanyl]methyl]-2-chloroacetamide]
[1]
  in-gel fluorescence of CL26-alkyne-bound AGPAT4 upon CL26 pre-treatment (target engagement): significant decrease in fluorescence intensity
[2]
  off-target binding: minimal off-target binding
[3]
  synergistic effect with sorafenib (excess over bliss scores): synergistic effect was observed solely in cells with high AGPAT4-expressing MHCC97L and MHCC97H cells
[4]
  synergistic effect with sorafenib: exclusively observed in sorafenib-resistant HepG2 cells
[5]
  blood chemistry (AST, ALT), major organ weight and histology vs control mice: no significant differences
  toxicity associated with treatment: minimal toxicity
[6]; PDX mice treated with CL26
  body weight vs control group: did not exhibit significant differences in body weight
[6]; PDX tumors
  p-mTOR levels, multiplex immunohistochemistry: reduction in p-mTOR levels
[6]; combination with sorafenib
  self-renewal ability, ex vivo limiting dilution analysis: decreased self-renewal ability
[6]; combination with sorafenib, HCC PDX model #2
  survival rate: highest survival rate
[6]; [7]
  number of tumor nodules: significant effect in reducing
  tumor size: significant effect in reducing
  tumor weight: significant effect in reducing
